System: MPL^W515L mouse model of myelofibrosis
Assay: MPL^W515L MF mouse model: survival
Type: in vivo
Conditions: MPL^W515L mice, oral 400 mg kg^−1 daily
Method: Generation of the MPL^W515L mutant MF mouse model was similar to previously described methods. Briefly, female donor BALB/c mice were treated with 5-fluorouracil at 150 mg kg^−1 intraperitoneal for 5 d before harvesting bone marrow. Hematopoietic stem and progenitor cells were enriched with CD117 magnetic beads (Miltenyi Biotec), transduced with retrovirus containing MSCV-hMPL W515L-IRES-GFP, then 50,000 transduced HSPCs along with 300,000 total non-stem cells were injected intravenously into lethally irradiated female BALB/c recipients. Development of MF was evaluated by spleen volumes using MRI beginning ~14 d following bone marrow transplantation (BMT) as outlined below, continuing weekly until end of the study. Mice were separated into equal groups based on spleen size ~14–21 d post-BMT, then treated with vehicle (Maisine CC) or LP-182 at 400 mg kg^−1 daily by oral gavage for 14–28 d or until mice were euthanized using guidelines for end stage illness and humane endpoints. Untreated healthy control animals were used for experimental comparisons. […] Soluble protein extracts were isolated by centrifugation at 15,000 x g for 15 min at 4 °C, quantified using Micro BCA protein assay (Thermo Scientific), then mixed with reducing 6X SDS-PAGE loading dye, heated for 8 min at 95 °C, and stored at −20 °C until immuno-blot analysis. […]

O=C(NOCCOCCOCCOCCC(=O)N1CCN(c2cnc3ccc(-c4cnc(Cl)c(NS(=O)(=O)c5ccc(F)cc5)c4)cc3n2)CC1)c1ccc(F)c(F)c1Nc1ccc(I)cc1F [LP-182, N-(2-(2-(2-(3-(4-(7-(6-chloro-5-((4-fluorophenyl)sulfonamido)pyridin-3-yl)quinoxalin-2-yl)piperazin-1-yl)-3-oxopropoxy)ethoxy)ethoxy)ethoxy)-3,4-difluoro-2-((2-fluoro-4-iodophenyl)amino)benzamide]
overall survival (Kaplan-Meier): significantly improved overall survival | survival to planned end of study (28 d treatment): survived 50 d post-transplant

Source: publication PMC9386018, “A lymphatic-absorbed multi-targeted kinase inhibitor for myelofibrosis therapy” (Nature Communications, 2022)
